Read-outs that look alike come from different tables or passages of the source.
What was measured:
Format in all cases: biochemical
Axl = target: T1, Axl (Homo sapiens, UniProt P30530); assay: Axl kinase inhibition IC50
T1 sequence (P30530 26-894): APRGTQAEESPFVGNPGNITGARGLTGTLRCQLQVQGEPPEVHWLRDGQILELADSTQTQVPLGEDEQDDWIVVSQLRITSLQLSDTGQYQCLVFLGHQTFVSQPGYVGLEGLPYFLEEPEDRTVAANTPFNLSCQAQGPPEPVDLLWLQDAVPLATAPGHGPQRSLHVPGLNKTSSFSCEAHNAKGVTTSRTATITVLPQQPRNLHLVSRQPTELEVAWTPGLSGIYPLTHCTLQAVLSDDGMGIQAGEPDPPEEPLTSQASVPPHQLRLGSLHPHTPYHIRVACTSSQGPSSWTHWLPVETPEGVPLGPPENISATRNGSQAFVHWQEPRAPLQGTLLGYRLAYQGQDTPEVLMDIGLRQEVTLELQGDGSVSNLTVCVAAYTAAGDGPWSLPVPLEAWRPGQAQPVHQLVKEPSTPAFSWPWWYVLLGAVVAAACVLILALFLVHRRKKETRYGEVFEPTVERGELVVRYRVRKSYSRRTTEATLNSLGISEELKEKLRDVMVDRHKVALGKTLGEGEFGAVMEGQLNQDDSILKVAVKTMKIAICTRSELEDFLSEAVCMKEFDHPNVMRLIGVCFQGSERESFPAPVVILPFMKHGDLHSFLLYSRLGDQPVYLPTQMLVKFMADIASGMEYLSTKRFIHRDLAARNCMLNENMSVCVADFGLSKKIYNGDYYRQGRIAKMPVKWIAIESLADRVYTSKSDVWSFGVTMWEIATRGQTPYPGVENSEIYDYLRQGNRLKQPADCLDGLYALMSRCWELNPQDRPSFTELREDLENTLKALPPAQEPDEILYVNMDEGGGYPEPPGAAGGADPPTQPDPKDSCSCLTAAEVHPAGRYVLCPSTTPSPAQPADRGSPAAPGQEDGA

Mer = target: T2, Mer (Homo sapiens, UniProt Q12866); assay: Mer kinase inhibition IC50; conditions: read-out: Mer IC50
T2 sequence (Q12866 21-999): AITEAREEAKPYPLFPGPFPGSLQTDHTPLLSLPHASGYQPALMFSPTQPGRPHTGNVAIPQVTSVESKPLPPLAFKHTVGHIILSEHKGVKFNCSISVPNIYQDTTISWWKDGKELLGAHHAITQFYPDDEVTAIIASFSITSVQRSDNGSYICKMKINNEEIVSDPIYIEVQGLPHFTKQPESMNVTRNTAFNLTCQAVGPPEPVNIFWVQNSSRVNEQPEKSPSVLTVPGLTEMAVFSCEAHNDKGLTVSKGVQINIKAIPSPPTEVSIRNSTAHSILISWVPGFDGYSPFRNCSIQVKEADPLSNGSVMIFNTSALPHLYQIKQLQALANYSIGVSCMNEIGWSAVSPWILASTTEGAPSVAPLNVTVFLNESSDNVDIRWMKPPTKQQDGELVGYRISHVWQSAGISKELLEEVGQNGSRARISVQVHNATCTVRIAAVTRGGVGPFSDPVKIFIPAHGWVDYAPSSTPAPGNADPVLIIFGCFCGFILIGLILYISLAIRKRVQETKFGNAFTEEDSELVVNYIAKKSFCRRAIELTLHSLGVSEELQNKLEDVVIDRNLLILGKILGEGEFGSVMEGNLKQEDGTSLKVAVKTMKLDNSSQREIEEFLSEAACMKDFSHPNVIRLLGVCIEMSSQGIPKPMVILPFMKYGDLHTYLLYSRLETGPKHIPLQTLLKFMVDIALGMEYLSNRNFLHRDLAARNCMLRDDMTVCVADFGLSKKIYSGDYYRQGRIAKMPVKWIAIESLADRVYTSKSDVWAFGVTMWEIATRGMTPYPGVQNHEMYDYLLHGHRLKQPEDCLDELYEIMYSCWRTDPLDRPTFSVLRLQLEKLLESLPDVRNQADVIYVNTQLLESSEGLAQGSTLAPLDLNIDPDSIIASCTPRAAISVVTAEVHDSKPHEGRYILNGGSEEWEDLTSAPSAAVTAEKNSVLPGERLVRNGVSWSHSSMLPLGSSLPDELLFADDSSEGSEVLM

Tyro3 = target: T3, Tyro3 (Homo sapiens, UniProt Q06418); assay: Tyro3 kinase inhibition IC50
T3 sequence (Q06418 41-890): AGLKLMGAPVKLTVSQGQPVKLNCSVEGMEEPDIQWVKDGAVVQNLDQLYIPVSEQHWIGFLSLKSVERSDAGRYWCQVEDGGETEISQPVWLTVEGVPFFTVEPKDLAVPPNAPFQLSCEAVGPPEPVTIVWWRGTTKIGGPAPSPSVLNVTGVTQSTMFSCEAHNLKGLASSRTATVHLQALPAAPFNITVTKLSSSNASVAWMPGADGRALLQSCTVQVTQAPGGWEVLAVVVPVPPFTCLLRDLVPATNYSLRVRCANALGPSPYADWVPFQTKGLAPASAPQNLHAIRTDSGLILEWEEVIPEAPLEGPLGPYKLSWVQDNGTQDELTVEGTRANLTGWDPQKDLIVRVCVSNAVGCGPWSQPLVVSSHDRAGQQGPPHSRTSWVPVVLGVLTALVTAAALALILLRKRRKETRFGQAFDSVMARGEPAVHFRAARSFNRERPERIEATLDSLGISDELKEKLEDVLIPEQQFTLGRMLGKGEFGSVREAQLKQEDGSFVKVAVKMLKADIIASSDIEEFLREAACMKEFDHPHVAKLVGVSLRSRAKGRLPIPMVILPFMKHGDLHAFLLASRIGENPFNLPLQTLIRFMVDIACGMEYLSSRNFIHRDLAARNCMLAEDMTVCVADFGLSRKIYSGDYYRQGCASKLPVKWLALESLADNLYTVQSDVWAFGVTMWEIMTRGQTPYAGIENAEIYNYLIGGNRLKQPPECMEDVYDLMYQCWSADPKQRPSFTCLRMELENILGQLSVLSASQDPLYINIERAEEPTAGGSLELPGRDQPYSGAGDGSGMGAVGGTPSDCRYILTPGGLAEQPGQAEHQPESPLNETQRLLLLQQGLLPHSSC

| Structure (SMILES) | IC50 (Axl; Table 3) | IC50 (Mer; Table 3) | IC50 (Mer; Table 2) | IC50 (Axl; Table 2) | IC50 (Tyro3; Table 2, read-out: Tyro3 IC50) | also measured |
| --- | --- | --- | --- | --- | --- | --- |
| CN1CCN(Cc2ccc(-c3cnc(Nc4ccc(C#Cc5cc(NC(=O)C6CCCCC6)ccn5)cc4)nc3N[C@H]3CC[C@H](O)CC3)cc2)CC1 [UNC3873A] | 10 to 100 nM | < 10 nM | – | – | – | IC50 (Tyro3; Table 3, read-out: Tyro3 IC50): 10 to 100 nM |
| CN(C)C(=O)c1ccnc(C#Cc2ccc(Nc3ncc(-c4ccccn4)c(N[C@H]4CC[C@H](O)CC4)n3)cc2)c1 [UNC3459A] | 1000 to 30000 nM | 10 to 100 nM | – | – | – | IC50 (Tyro3; Table 3, read-out: Tyro3 IC50): < 10 nM |
| CC(C)Oc1ccnc(C#Cc2ccc(Nc3ncc(-c4ccccn4)c(N[C@H]4CC[C@H](O)CC4)n3)cc2)c1 [UNC4394A] | – | – | – | – | – | IC50 (Axl; Table 5): 100 to 1000 nM; IC50 (Mer; Table 5): 100 to 1000 nM; IC50 (Tyro3; Table 5, read-out: Tryo3 IC50): 100 to 1000 nM |
| CN1CCN(Cc2ccc(-c3cnc(Nc4ccc(C#Cc5cc(C6OCCO6)ccn5)cc4)nc3N[C@H]3CC[C@H](O)CC3)cc2)CC1 [UNC3437A] | 100 to 1000 nM | 10 to 100 nM | – | – | – | – |
| O=S(=O)(c1ccc(-c2cnc(Nc3ccc(C#Cc4cc(C5OCCO5)ccn4)cc3)nc2N[C@H]2CC[C@H](O)CC2)nc1)N1CCOCC1 [UNC3619A] | 100 to 1000 nM | < 10 nM | – | – | – | IC50 (Tyro3; Table 3, read-out: Tyro3 IC50): < 10 nM |
| CC[C@H](N)C(=O)N1CC=C(c2ccc(Nc3ncc(-c4ccccn4)c(N[C@H]4CC[C@H](O)CC4)n3)cc2)CC1 [UNC4403A] | – | – | 100 to 1000 nM | 1000 to 30000 nM | 100 to 1000 nM | – |
| CC(C)C(=O)Nc1ccnc(C#Cc2ccc(Nc3ncc(-c4ccncc4)c(N[C@H]4CC[C@H](O)CC4)n3)cc2)c1 [UNC4043A] | 10 to 100 nM | < 10 nM | – | – | – | IC50 (Tyro3; Table 3, read-out: Tyro3 IC50): < 10 nM |
| O[C@H]1CC[C@H](Nc2nc(Nc3ccc(C#Cc4cc(-c5cccnc5)ccn4)cc3)ncc2-c2ccccn2)CC1 [UNC4361A] | – | – | – | – | – | IC50 (Axl; Table 4): 100 to 1000 nM; IC50 (Mer; Table 4): 100 to 1000 nM; IC50 (Tyro3; Table 4, read-out: Tryo3 IC50): 100 to 1000 nM |
| CN1CC=C(c2ccc(Nc3ncc(-c4ccccn4)c(N[C@H]4CC[C@H](O)CC4)n3)cc2)CC1 [UNC4431A] | – | – | 100 to 1000 nM | 1000 to 30000 nM | 100 to 1000 nM | – |

Second part, led by results:

| IC50 (Axl; Table 3) | IC50 (Mer; Table 3) | IC50 (Mer; Table 2) | IC50 (Axl; Table 2) | IC50 (Tyro3; Table 2, read-out: Tyro3 IC50) | Structure (SMILES) | also measured |
| --- | --- | --- | --- | --- | --- | --- |
| – | – | 100 to 1000 nM | – | – | CN1CCN(Cc2ccc(-c3ccc(Nc4ncc(-c5ccccn5)c(N[C@H]5CC[C@H](O)CC5)n4)cc3)cc2)CC1 [UNC4437A] | – |
| – | – | 100 to 1000 nM | 1000 to 30000 nM | 100 to 1000 nM | O[C@H]1CC[C@H](Nc2nc(Nc3ccc(C4CCNCC4)cc3)ncc2-c2ccccn2)CC1 [UNC5128A] | – |
| – | – | 100 to 1000 nM | 1000 to 30000 nM | 100 to 1000 nM | CN1CCC(c2ccc(Nc3ncc(-c4ccccn4)c(N[C@H]4CC[C@H](C)CC4)n3)cc2)CC1 [UNC5133A] | – |
| – | – | 10 to 100 nM | 100 to 1000 nM | 100 to 1000 nM | CN1CCC(N2CCC(c3ccc(Nc4ncc(-c5ccccn5)c(N[C@H]5CC[C@H](O)CC5)n4)cc3)CC2)CC1 [UNC5072A] | – |
| – | – | 10 to 100 nM | 100 to 1000 nM | 100 to 1000 nM | CC(C)Nc1nc(Nc2ccc(C3CCN(C)CC3)cc2)ncc1-c1ccccn1 [UNC5135A] | – |
| – | – | 100 to 1000 nM | 1000 to 30000 nM | 100 to 1000 nM | O[C@H]1CC[C@H](Nc2nc(Nc3ccc(C4=CCCN(C5CCC5)C4)cc3)ncc2-c2ccccn2)CC1 [UNC5070A] | – |
